Laboratory results: patent US7201899B2, “Materials and methods for management of hyperacute rejection in human xenotransplantation” (BresaGen Limited, priority 1994, dated 2007)
“Also recorded” adds a separate entry of the source.

Legend:
pig RBC = test: Hemagglutination of pig RBC by human serum: sugar inhibition; type: cell-based; conditions: for Inhibitory Concentration: inhibition of pig RBC hemagglutination by pooled human AB serum; for concentration range inhibiting agglutination (in words): pig RBC agglutination by human serum
Experimental: The methods used to investigate the hemagglutination of pig red blood cells (RBC's) by human serum was adapted from the methods described by Galili, J. Exp. Med. 160: 1579–81 (1984) and Severson, Immunol. 96: 785–789 (1966).
A. Media/Solution Preparation • 1. Human Serum Albumin (HSA) (CSL, Melbourne, Australia) (5 mg/ml) was dissolved in PBS, filter sterilized, and stored at 4° C. • 2. Preparation of sugars: • 1 M stock solutions of sugar were prepared by dissolving the amount indicated in 100 ml of PBS. Sodium azide was added (0.02%) and solutions stored at 4° C.
B. Preparation of Pig RBC'S • 1. Heparinised pig blood (Animal Resources, Clayton, Australia) is centrifuged at 800 RPM for 10 min to pellet the RBC. • 2. The RBC pellet is washed by resuspension in PBS (10 ml) and recentrifugation (repeated 3 times). After the final wash, the RBC pellet is resuspended in 10 ml PBS. • 3. A 0.5% solution of RBC's is prepared by adding 50 ul RBC solution (from step 2, above) to 10 ml PBS containing 0.5 g/100 ml of HSA.
C. Preparation of 96-well Microtitre Plates (Titretek. USA) • 1. Add 25 ul of PBS to each well. • 2. Add 25 ul of pooled human AB serum (CSL, Melbourne, Australia) to column 1 and serially dilute by removing 25 ul from column 1 and adding to column 2, then repeating by sequentially removing and adding 25 ul from and to each well across the plate, finally discarding 25 μl from column 11 and adding no serum to column 12. • 3. Add 25 ul of sugar solution to each row in decreasing concentrations down rows. No sugar solution is added to the final row. • 4. Incubate at 4° C. overnight and then at 37° C. for 30 min. • 5. Add 50 ul of 0.5% pig RBC to each well; vortex and incubate at room temperature for 2 hours. Determine agglutination visually. II. Results

[1] = test system: pig kidney, heart and liver sections; test: Immunostaining of pig tissues with anti-GAL antibodies; type: binding; conditions: pig renal cortex sections, proximal tubule brush borders; sugar 0.1 M
Experimental: Pig kidney was fixed in formalin and dehydrated before embedding in Paraplast. Pig heart and liver were fixed in paraformaldehyde-lysine-periodate fixative and snap frozen in O.C.T. embedding compound (10.24% w/w polyvinyl alcohol, 4.26% w/w polyethylene glycol, 85.50% w/w nonreactive ingredients; Tissue Tek®, Miles, Inc., Elkhart, Ind., USA). Four μm-thick sections of pig heart and liver and 2 μm-thick sections of kidney were incubated with purified anti-GAL antibodies (undiluted, 1:2 and 1:4) for 60 min. and then incubated with a fluorescein isothiocyanate (FITC)-conjugated sheep anti-human immunoglobulin F(ab′) fragment. (Silenus Laboratories, Hawthorn, Australia) (1:100) for 30 min. or a peroxidase-conjugated rabbit anti-human IgG (Dakopatts, Glostrup, Denmark) (1:50) for 60 min. Control sections were analyzed for autofluorescence, with the secondary antibody alone, or with the anti-GAL-depleted IgG or normal pig serum as the primary antibody. […] The specificity of the anti-GAL antibodies was tested by pre-incubating sections of pig renal cortex with a variety of sugars, including melibiose, lactose, sucrose and glucose at 0.1 M.

PAE's = test: Cytotox LDH release assay: effect of sugars on lysis of PAE's by human serum; type: cell-based, porcine; conditions: 50% human serum, sugar 1 mM to 100 mM
Experimental: B. LDH Release Assay • 1. […] Controls: • a) Spontaneous release (no antibody or complement) • 25 μl labeled cells • 75 μl RPMI/10% FCS (heat inactivated) • b) Maximum release • 25 μl labeled cells • 50 μl 16% Triton X-100 • 25 μl RPMI/10% FCS (heat inactivated) • 3. Calculation of % Lysis: % Lysis=Experimental release−(Spontaneous release cpm+sugar cpm)×100 Maximum release−(Spontaneous release cpm+sugar cpm) • 4. Experimental Design:
The effect of adding the disaccharide sugars melibiose ([…]) and lactose (Gal β1→4 Glu) on the lysis of PAE's by human serum was assessed using the Cytotox non-radioactive LDH release assay. PAE's were incubated in the presence of 50% human serum as the source of xenoantibody and complement, together with various concentrations of each sugar (1 mM to 100 mM).

Row | SMILES | Inhibitory Concentration (pig RBC) | concentration range inhibiting agglutination (in words) (pig RBC) | inhibition of anti-GAL antibody binding to pig tissue by sugar [1] | protection of PAE's from lysis by human serum (PAE's)
1 | OC[C@H]1O[C@@H](O[C@H]2[C@H](O)[C@@H](O)[C@@H](O)O[C@@H]2CO)[C@H](O)[C@@H](O)[C@H]1O [Lactose, 4-O-β-D.galactopyranosyl-α-D-glucose] | >10^−1M | only inhibitory when very high concentrations were used | not inhibited | not
2 | O=C[C@H](O)[C@@H](O)[C@H](O)[C@H](O)CO[C@H]1O[C@H](CO)[C@H](O)[C@H](O)[C@H]1O [Melibiose, 6-O-α-D-galactopyranosyl-D-glucose] | 0.0005 M | μM to mM range | reduced to near background; also recorded: inhibited | protected the pig cells from lysis
